Format in all cases: cell-based
Assay [1] deals with T1, von Hippel-Lindau disease tumor suppressor/Tyrosine-protein kinase ABL1 (Homo sapiens, UniProt P00519+P40337). In words: Protac activity at VHL/c-ABL in human K562 cells assessed as induction of c-ABL protein degradation incubated for 24 hrs by immunoblot method. For orientation: In western blotting, separated proteins are transferred to a membrane and probed.
Target sequence in this assay (P00519 whole entry): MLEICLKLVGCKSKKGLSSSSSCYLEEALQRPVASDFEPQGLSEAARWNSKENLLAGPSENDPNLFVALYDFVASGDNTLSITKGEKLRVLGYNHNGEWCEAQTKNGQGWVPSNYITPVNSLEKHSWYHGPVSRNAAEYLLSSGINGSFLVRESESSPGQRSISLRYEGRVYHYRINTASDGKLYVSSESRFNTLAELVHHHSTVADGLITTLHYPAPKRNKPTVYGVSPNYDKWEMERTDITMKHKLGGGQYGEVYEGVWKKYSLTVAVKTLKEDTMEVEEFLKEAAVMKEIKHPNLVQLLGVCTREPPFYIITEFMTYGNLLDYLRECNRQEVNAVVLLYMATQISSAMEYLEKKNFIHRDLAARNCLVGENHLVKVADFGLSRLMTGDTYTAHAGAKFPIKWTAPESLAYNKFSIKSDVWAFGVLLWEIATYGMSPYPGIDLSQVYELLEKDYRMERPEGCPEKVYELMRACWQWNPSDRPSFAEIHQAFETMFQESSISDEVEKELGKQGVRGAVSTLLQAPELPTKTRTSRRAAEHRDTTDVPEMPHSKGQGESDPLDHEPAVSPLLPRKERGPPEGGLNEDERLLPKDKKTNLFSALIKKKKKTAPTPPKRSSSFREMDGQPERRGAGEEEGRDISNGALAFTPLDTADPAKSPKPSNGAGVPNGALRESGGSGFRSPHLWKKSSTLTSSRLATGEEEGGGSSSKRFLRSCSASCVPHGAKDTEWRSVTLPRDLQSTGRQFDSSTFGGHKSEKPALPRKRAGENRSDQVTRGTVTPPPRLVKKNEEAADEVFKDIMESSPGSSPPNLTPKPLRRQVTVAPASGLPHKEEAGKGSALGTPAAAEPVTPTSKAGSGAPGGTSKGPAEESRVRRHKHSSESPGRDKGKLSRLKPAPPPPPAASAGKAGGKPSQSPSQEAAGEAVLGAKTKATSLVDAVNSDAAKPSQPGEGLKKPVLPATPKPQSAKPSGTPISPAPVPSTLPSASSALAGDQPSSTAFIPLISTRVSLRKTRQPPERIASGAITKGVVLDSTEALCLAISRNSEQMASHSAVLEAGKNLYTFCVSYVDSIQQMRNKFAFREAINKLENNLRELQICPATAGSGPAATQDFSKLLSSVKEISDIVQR
Target sequence in this assay (P40337 whole entry): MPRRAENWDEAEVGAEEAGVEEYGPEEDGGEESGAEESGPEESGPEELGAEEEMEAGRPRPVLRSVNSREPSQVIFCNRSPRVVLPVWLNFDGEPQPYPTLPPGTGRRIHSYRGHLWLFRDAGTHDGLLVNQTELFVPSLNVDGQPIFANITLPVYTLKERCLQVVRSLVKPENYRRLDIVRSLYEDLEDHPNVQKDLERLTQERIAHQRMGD
The target of assay [2] is T1, von Hippel-Lindau disease tumor suppressor/Tyrosine-protein kinase ABL1. The assay can be described thus: Protac activity at VHL/c-ABL in human K562 cells assessed as induction of c-ABL protein degradation at 1 uM incubated for 24 hrs by immunoblot method relative to control.
Target sequence in this assay (P00519 whole entry, looked up): as the sequence (P00519 whole entry) above
Target sequence in this assay (P40337 whole entry, looked up): as the sequence (P40337 whole entry) above
Assay [3] concerns the target T2, Protein cereblon/Peptidyl-prolyl cis-trans isomerase FKBP1A (Homo sapiens, UniProt P62942+Q96SW2). The assay can be described thus: Protac activity at CRBN/FKBP12 in human Jurkat cells assessed as induction of FKBP12 protein degradation incubated for 12 hrs by immunoblot method.
Target sequence in this assay (P62942 whole entry): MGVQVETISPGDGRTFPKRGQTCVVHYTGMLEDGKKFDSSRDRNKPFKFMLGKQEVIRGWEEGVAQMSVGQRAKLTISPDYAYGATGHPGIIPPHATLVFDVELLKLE
Target sequence in this assay (Q96SW2 whole entry): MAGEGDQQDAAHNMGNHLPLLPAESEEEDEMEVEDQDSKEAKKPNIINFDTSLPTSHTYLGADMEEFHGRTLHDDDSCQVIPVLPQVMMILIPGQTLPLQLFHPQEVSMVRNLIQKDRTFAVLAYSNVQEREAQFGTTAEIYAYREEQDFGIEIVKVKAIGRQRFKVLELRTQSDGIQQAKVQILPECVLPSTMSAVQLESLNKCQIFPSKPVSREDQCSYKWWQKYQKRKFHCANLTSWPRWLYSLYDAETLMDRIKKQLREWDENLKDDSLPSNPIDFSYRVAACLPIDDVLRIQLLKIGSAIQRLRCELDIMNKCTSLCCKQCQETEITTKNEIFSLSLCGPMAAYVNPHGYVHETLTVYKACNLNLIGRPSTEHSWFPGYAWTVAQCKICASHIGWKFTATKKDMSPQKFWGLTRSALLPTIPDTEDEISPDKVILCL
Assay [4] addresses T2, Protein cereblon/Peptidyl-prolyl cis-trans isomerase FKBP1A. The assay can be described thus: Protac activity at CRBN/FKBP12 in human Jurkat cells assessed as induction of FKBP12 protein degradation up to 1000 nM incubated for 12 hrs by immunoblot method relative to control.
Target sequence in this assay (P62942 2-108 limits assumed): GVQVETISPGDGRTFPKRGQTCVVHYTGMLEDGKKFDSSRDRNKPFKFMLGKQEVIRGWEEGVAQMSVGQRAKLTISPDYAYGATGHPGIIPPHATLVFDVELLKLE
Target sequence in this assay (Q96SW2 whole entry partner): as the sequence (Q96SW2 whole entry) above

Usually DC50 stands for the concentration at which degradation of the target reaches its halfway point. Usually Emax stands for the greatest response seen or fitted, relative to the assay's reference.

For `Cc1nc(Nc2ncc(C(=O)Nc3c(C)cccc3Cl)s2)cc(N2CCN(CCCCCCOCCOCCOCCCCCC(=O)N[C@H](C(=O)N3C[C@H](O)C[C@H]3C(=O)NCc3ccc(-c4scnc4C)cc3)C(C)(C)C)CC2)n1`, in assay [1], the DC50 turned out to be 1 µM. In assay [2], the Emax was above 65%.
With `CO[C@H]1C[C@@H]2CC[C@@H](C)[C@@](O)(O2)C(=O)C(=O)N2CCCC[C@H]2C(=O)O[C@H]([C@H](C)C[C@@H]2CC[C@@H](OCCOCc3cn(CCOCCOCCNc4cccc5c4C(=O)N(C4CCC(=O)NC4=O)C5=O)nn3)[C@H](OC)C2)CC(=O)[C@H](C)/C=C(\C)[C@@H](O)[C@@H](OC)C(=O)[C@H](C)C[C@H](C)/C=C/C=C/C=C/1C` (some centres undefined), in assay [3], the DC50 was 0.0003 µM. In assay [4], the Emax is above 95%.

The record behind these values is ChEMBL document CHEMBL4387721, “Proteolysis targeting chimeras (PROTACs) in 'beyond rule-of-five' chemical space: Recent progress and future challenges” (Bioorg Med Chem Lett, 2019).
